System: γ-globulin fraction (GGF)
Assay: Fluorescence quenching of GGF by peptides L1–3
Assay type: binding
Details: for Stern–Volmer constant Ksv / binding constant Kb / logKb: GGF 1.0 µM, phosphate buffer; for Stern–Volmer constant Ksv: peptide 0.25–2.0 µM, λex 280 nm; for logKb: double log regression; for quenching rate constant kq: from Ksv with τ0 10^−8 s assumed
Experimental: Fluorescence spectroscopy was carried out to characterize the mechanism of the interaction between three plasma proteins, BSA, AAG, and GGF, with the studied peptides. The fluorescence spectra of protein were collected during titration of L1–L3. The excitation wavelength was set at λ = 280 nm (both Trp and Tyr residues were excited).
To confirm this, the fluorescence data were further analyzed by the Stern–Volmer Equation (1) after correction due to the infer filter effect (2):(1) F0/F=1+kqτ[Q]=1+KSV (2) Fcorr=Fobs10^(Aex+Aem)/2 where F0 and F are the fluorescence intensities (after correction) of the protein and protein in the presence of L1–3, respectively, kq is the quenching rate constant, τ0 the average lifetime, [Q] is the L1–3 concentration, Ksv is the Stern–Volmer constant, and Fcorr, and Fobs are the corrected and observed fluorescence intensities, respectively. Aex and Aem are the absorbance values at excitation and emission wavelengths, respectively. A linear regression fit was used to calculate the value of the Stern–Volmer constant (Ksv). Then, assuming the average lifetime of the fluorophore in the excited state for a biomolecule as 10^−8 s, the quenching rate constant (kq) was computed. For dynamic quenching, the maximum scatters collision quenching rate constant for different quenchers with the biopolymers was reported to be 2 × 10^10 dm^3mol^−1s^−1 [55, 56]. […] Collisional quenching occurs when the excited-state fluorophore is deactivated by contact with some other molecule in solution (by collisions). […] This is a dynamic mechanism of quenching. The quenching constant characterizes the quenching mechanism. The maximum value for collisional quenching is 2 × 10^10 dm^3mol^−1s^−1. […] For further confirmation, measurements were made at, in addition to 297 K, temperatures 303 and 308 K. Experimental data points were fitted and analyzed using Equation (1).
Both for the complexes with BSA and with GGF, the binding constant (Kb) and the binding stoichiometry (n) were calculated. […] The values of Kb and n were calculated from the slope and the intercept of the log [(F0 − F)/F] versus log [Q] plot (Figure 2).
The forces involved in the interaction can be identified by measurement at different temperatures and then by thermodynamic analysis. The signs of the thermodynamic parameters identify the type of interactions. The enthalpy change (ΔH°), the entropic change (ΔS°), and the free energy change (ΔG°) were calculated from Equations (4) and (5):(4) […]=−ΔH^°/RT+ΔS^°/R (5) ΔG^°=ΔH^°−TΔS^°=−RTlnKb where Kb is the binding constant and R is the universal gas constant. To determine the thermodynamic parameters, the van’t Hoff plot was first conducted, i.e., the temperature dependence of the binding constant, according to Equation (4). The Kb values at the three temperatures were fitted by the linear regression method. The values of ΔH and ΔS were calculated from the slope and intercept at the fitted line. Next, the free energy change (ΔG°) was obtained from Equation (5).

binding constant Kb (297 K): 10.10 ± 0.24 × 10^4 dm^3mol^−1
binding constant Kb (303 K): 6.17 ± 0.25 × 10^4 dm^3mol^−1
binding constant Kb (308 K): 2.51 ± 0.12 × 10^4 dm^3mol^−1
Substance: Lys-Dab-Dab-Gly-Orn-Pro-His-Lys-Arg-Lys-Dbt [L1]
Stern–Volmer constant Ksv (297 K, inner-filter corrected): 4.24 ± 0.06 × 10^4 dm^3mol^−1
logKb (297 K): 5.00 ± 0.12
quenching rate constant kq (297 K): 4.24 ± 0.06 × 10^12 dm^3mol^−1s^−1
Stern–Volmer constant Ksv (303 K): 4.03 ± 0.13 × 10^4 dm^3mol^−1
logKb (303 K): 4.79 ± 0.20
quenching rate constant kq (303 K): 4.03 ± 0.13 × 10^12 dm^3mol^−1s^−1
Stern–Volmer constant Ksv (308 K): 3.60 ± 0.06 × 10^4 dm^3mol^−1
logKb (308 K): 4.39 ± 0.21
quenching rate constant kq (308 K): 3.60 ± 0.06 × 10^12 dm^3mol^−1s^−1

From PMC9918186, “Interaction of Positively Charged Oligopeptides with Blood Plasma Proteins” (International Journal of Molecular Sciences, 2023)
